Measured values published in patent publication US20110160266A1, “Novel Anti-Arrhythmia Agent” (THE UAB RESEARCH FOUNDATION, priority 2008, published 2011).
Where “and” joins values, the source holds several entries; their conditions need not be identical. Equal entries are not always repeated. Marks after values point to notes of the source that are not given here.

Assays:
[1] = system: isolated, superfused rat left atria
Description: Left atria were isolated from male Sprague-Dawley rats (325 to 400 g) under IP pentobarbital anesthesia (0.1 g/kg). Isolated left atria were superfused at 30° C. in Krebs-Henseleit (KH) buffer of the following mM composition: NaCl, 118; NaHCO3, 27; KCl, 4.8; MgSO4, 1.2; KH2PO4, 1.0; CaCl2, 1.8; and glucose, 11.1. Nearly isometric left atrial forces of contraction were measured as described.
Isolated superfused left atria were paced at 3 Hz. 2-APB was added to atrial superfusates from 0.015 or 0.15M DMSO stock solutions to achieve concentrations of 0, 2, 7.5, 15, or 22 μM (n=5 to 10 atria per concentration). Changes in atrial mechanical force were recorded during a subsequent 15 min superfusion.
Two groups of 5 to 6, 3 Hz paced atria were superfused in KH and exposed to 0 or 15 μM 2-APB for 10 min. The pacing stimulus was interrupted for 5 min and the number of spontaneous mechanical events (SMEs), defined as increases in mechanical force occurring in the absence of pacing, were measured as was the postrest potentiation response (PRP).
To determine whether diastolic interval affected the interaction between 2-APB and left atria, atrial pacing was decreased to 0.1 Hz, and 0, 7.5, or 22 μM 2-APB was added to the superfusate (n=6-8 per group). Superfusions continued for 15 min, and changes in atrial mechanical function were observed.
To establish whether SMA was reversible, atria (n=7) were paced at 0.1 Hz, exposed to 15 μM 2-APB for 10 min, and washed with KH. The effect of removing 2-APB on atrial mechanical function was recorded.

rat left atria = system: rat left atria
Description: The initial potentiated beat following prolonged rest (i.e., the PRP maximum force of contraction) reflects activator calcium available for SR release. The PRP response was used to obtain an indirect measure of left atrial SR calcium under our conditions.
Left atria (n=6) were superfused in KH, paced at 0.1 Hz, and subjected to PRP. Superfusion proceeded for another 35 min, and a second PRP was performed. These 2 forces were compared to assure the mechanical stability of our preparations.
One group (n=8) was superfused in KH, paced at 0.1 Hz, and their maximum force of contraction was measured.
A second group (n=8) was paced at 0.1 Hz in KH and subjected to PRP. They were exposed to 22 μM 2-APB and, after the appearance of SMA, were washed with KH containing 22 μM 2-APB and 82 mM sodium. Superfusion continued for 23 min and a second PRP was performed.
Control 0.1 Hz paced atria (n=8) were subjected to PRP and exposed to 400 μM DIDS, and a second PRP was performed 23 min later.
A group of atria (n=8) were paced at 0.1 Hz in KH and subjected to PRP. They were exposed to 22 μM 2-APB, 400 μM DIDS was added to the superfusate after the appearance of SMA, and a second PRP was performed 23 min later.

isolated rat left atria = test: Pharmacological activation of spontaneous tachycardic activity (STA): calcium-loading agents with or without 2-APB
Description: Male Sprague-Dawley rats (325-400 g) were anesthetized with intra-peritoneal pentobarbital (0.1 g/kg). Their right and left atria were isolated, superfused at 30° C. in Krebs-Henseleit buffer, and nearly isometric forces of contraction were measured from these muscles (Wolkowicz et al., 2002). 2-APB was prepared as a 150 mM dimethyl sulfoxide stock.
Left atria (n=8 per group) were paced at 3 Hz and (i) titrated with 0 to 30 nM isoproterenol (Ahlquist, 1970) or (ii) exposed to 3 μM forskolin (Laurenza et al., 1980). Left atrial force and frequency of contraction, the time to peak tension and relaxation times were recorded after a 3-5 min exposure to forskolin or to any concentration of isoproterenol. The 3 Hz pacing stimulus was interrupted at the end of these protocols to measure SMA. […]
Left atrial contraction and relaxation times were recorded at these five times, the pacing stimulus was stopped and rates of SMA were recorded. […] Atrial mechanical function was measured at these four times; the pacing stimulus then was stopped and rates of SMA were recorded.
Left atria (n=6 per group) were paced at 3 Hz, titrated with 0 to 300 nM (−)BayK 8644 ([…]-1,4-Dihydro-2,6-dimethyl-5-nitro-4-[2-(trifluormethyl)phenyl]-3-pyridinecarboxylic acid methyl ester; Franckowiak et al. 1985) or FPL-64176 (2,5-Dimethyl-4-[2-(phenylmethyl)benzoyl]-1H-pyrrole-3-carboxlic acid methyl ester); Zheng et al., 1991) and their mechanical function and rates of SMA were recorded after a 5 min exposure to any concentration of slow calcium channel activator.
Atrial mechanical function was recorded at this time; the pacing stimulus then was stopped and rates of SMA were recorded. […]
Left atria (n=7) were paced at 3 Hz, treated with 120 μM ouabain (Illanes and Marshall, 1964), and any change in mechanical function was recorded at a new steady state, ˜10 min later. […]

[2] = system: right ventricular muscle strips and right ventricular papillary muscles; test: Ventricular muscle model of SMA; parameters: species or system rats; settings: added to the superfusate in appropriate amounts; paced at 0.5 Hz
Source text: To further establish this model as a general test for arrhythmic and anti-arrhythmic agents, right ventricular muscle strips and right ventricular papillary muscles were isolated from anesthetized rats using methods known to persons skilled in the art. These muscles were then superfused as described above and paced at 0.5 Hz.

[3] = 2-APB values obtained during SMA, mean ± SEM

SMILES: NCCOB(c1ccccc1)c1ccccc1 [2-APB, 2-aminoethoxydiphenyl borate]
- reversibility of SMA on removing 2-APB from the superfusate ([1]; 0.1 Hz, 15 μM 2-APB, washed with KH, data not shown): restored regular atrial mechanical function
- T0.5R (time to 50% relaxation) [1, 3]: 35 ± 0.8 ms
- T0.9R (time to 90% relaxation) [1, 3]: 74 ± 0.8 ms
- TPT (time to peak tension) [1, 3]: 59 ± 1.6 ms
- 2-APB concentration giving numerous SMEs during rest and a blunted post-rest response ([1]; 3 Hz paced, 2-APB 10 min, then 5 min rest): ≥ 15 µM
- 2-APB concentration giving intermittent SMEs ([1]; atria paced at 0.1 Hz): ≤ 10 µM
- 2-APB concentration giving repeated SMEs giving way to sustained SMA ([1]; atria paced at 0.1 Hz): > 15 µM
- 2-APB concentration producing sporadic/intermittent spontaneous mechanical events ([1]; left atria paced at 3 Hz, 5 to 10 min of exposure): > 10 µM and > 7.5 µM
- maximum force of left atrial contraction vs values before the addition of 2-APB (rat left atria): significantly decreased
- rate of tachycardic response, Pre-washing (isolated rat left atria; 300 nM BayK 8644 and 20 μM 2-APB): 224±12 contractions/min
- rate of SMA/STA in the absence of pacing (isolated rat left atria; 20 μM 2-APB alone or with 30 nM isoproterenol, 3 μM forskolin, 300 nM BayK 8644, 300 nM FPL-64176 or 120 μM ouabain): 47±6 contractions/min and ~50 contractions/min
- T0.5R (time to 50% relaxation) (isolated rat left atria; concentrations per footnote): 35.9 msc
- T0.9R (time to 90% relaxation) (isolated rat left atria; concentrations per footnote): 68.4 msc
- TPT (time to peak tension) (isolated rat left atria; concentrations per footnote): 57.5 msc
- SMA Rate (isolated rat left atria; spontaneous atrial mechanical events, concentrations per footnote): 47^‡ SMEs per minute
- rate of tachycardic response, Post-washing (isolated rat left atria; washed with superfusate containing slow calcium channel activator but no 2-APB, 5 min later): 0.7±0.4 contractions/min
- induction of ventricular SMA [2]: ventricular SMA was observed
